Earlier results on one compound are cited in patent US20230025452A1, “ANTICANCER COMBINATION THERAPY” (Boehringer Ingelheim International GmbH, priority 2017, published 2023).

The test system of data set [1] is human acute myeloid leukemia (AML) and human prostate tumor xenograft models harboring p53 wild-type. The note with it: Tovar et al. 2013.
The subject of data set [2] is solid tumor xenograft models and acute lymphoblastic leukemia (ALL) xenograft models. The note with it: Carol et al. 2013.

Structures are written as SMILES.

Take `CCOc1cc(C(C)(C)C)ccc1C1=N[C@@](C)(c2ccc(Cl)cc2)[C@@](C)(c2ccc(Cl)cc2)N1C(=O)N1CCN(CCCS(C)(=O)=O)CC1` [RG-7112]: the “antiproliferative and proapoptotic activity” value in data set [1] is “antiproliferative and proapoptotic activity”. In data set [2] (ALL xenograft models with MLL rearrangement), the efficacy entry was “particularly efficacious”. Moreover, the tumor growth inhibition entry in data set [2] (solid tumor xenograft models) is recorded as “induced tumor growth inhibition”.
